This note sets out measurements from ChEMBL document CHEMBL4368934, “Chemistry and biology of ophiobolin A and its congeners” (Bioorg Med Chem Lett, 2019).

The test system of data set [1] is Plasmodium falciparum. Put plainly: Antimalarial activity against Plasmodium falciparum K1 by [3H]-hypoxanthine incorporation assay. It counts as functional, organism-based.
The subject of data set [2] is Mycobacterium tuberculosis. Put plainly: Antibacterial activity against Mycobacterium tuberculosis H37Ra by microplate alamar blue assay. The format is functional, organism-based. In general terms: The colour change of resazurin is a common sign of viable cells or microbes.
Data set [3] in a line: Acute toxicity in iv dosed mouse. The format is organism-based. Conditions: in vivo.
The test system of data set [4] is Panel NCI-60 (60 carcinoma cell lines). Put plainly: Cytotoxicity against human NCI60 cells. It counts as functional.
A short description of data set [5]: Acute toxicity in sc dosed mouse. The format is organism-based. Conditions: in vivo.
Data set [6] can be described thus: Cytotoxicity against mouse P388/R cells after 72 hrs by MTT assay. The format is functional, cell-based. To be noted: P388, 72 h. (In general: Tetrazolium dyes change colour on reduction, which living cells bring about.)

Each structure is given as a SMILES string. Converted amounts (≈) assume the structure as drawn.

In general, IC50 refers to the concentration needed to halve the response being measured. Low readings indicate higher potency, high ones lower potency. Consider `C/C(=C\[C@H](O)[C@@H](O)[C@H](C)[C@H]1CC[C@@]2(C)C[C@@H]3[C@H](C)CC(=O)[C@@H]3/C(C=O)=C\C[C@H]12)C(=O)O`, for which the IC50 worked out at 13 µg/mL (≈ 30.1 µM) in data set [1] and 200 µg/mL (≈ 462 µM) in data set [2].
A word on the LD50: it is the dose expected to kill half of the subjects tested. A lower LD50 goes with greater toxicity. Broadly, the GI50 is the concentration giving 50% growth inhibition. Take `CC(C)=C[C@H]1C[C@H](C)[C@]2(CC[C@]3(C)C[C@H]4[C@H](C(=O)C[C@@]4(C)O)/C(C=O)=C\C[C@H]32)O1` [OPHIOBOLIN A]: the 50% lethal dose (LD50) was found to be 12 mg/kg in data set [3] and 238 mg/kg in data set [5]. The same molecule had a GI50 in data set [4] of 72 nM. Moreover, in data set [4] (read-out: LC50 (the source's name)), the CC50 amounted to 629 nM.
Take `CC(C)=C/C=C/[C@H](C)C1=CC[C@]2(C)C[C@H]3[C@H](C(=O)C[C@@]3(C)O)/C(C=O)=C\C[C@@H]12`: the half-maximal inhibitory concentration (IC50) in data set [6] lay in the range of 270 to 650 nM.
